{
  "source": "patent US20240327488A1",
  "about": "“CONNEXIN-46 PEPTIDE MODULATOR” (UNIVERSIDAD DEL DESARROLLO, priority 2023, published 2024)",
  "format_in_all_cases": "cell-based, human",
  "key": {"[1]": {"tested_on": "Tumor spheres formed by Hela cells transfected with Cx46GFP", "assay": "Cell viability of tumor spheres (7-AAD uptake)", "procedure": "Tumor spheres formed by Hela cells transfected with Cx46GFP were grown for 14 days. […] TAT-Cx46-Src was added every 3 days (every time that culture media was replaced). At day 14th, 10 mM 7-AAD was added to the extracellular media."}, "[2]": {"tested_on": "Akt phosphorylation in S473", "assay": "Western blot of Akt phosphorylation at S473", "procedure": "(A) Representative Western blot showing, the levels of phosphorylation at S473 (pAKT), total AKT (AKT) and loading control (actin). Different concentrations of TAT-Cx46-Src were tested, ranging between […]. (B) Plot showing the relative levels of pAKT with respect to total AKT at different concentrations of TAT-Cx46-Src. (n=3).\nWestern blots: Cells were washed three times with phosphate buffered saline\n(PBS) pH: 7.4 and then lysed with RIPA buffer (150 mM NaCl, 20 mM Tris pH: 7.4; 0.5% Sodium Desoxycholate, 0.1% Sodium Dodecyl Sulfate (SDS), 1% Nonidet P-40 and a protease inhibitor cocktail tablet). Proteins were quantified using the Qubit™ protein Assay Kit in a Qubit™ Fluorometer following the manufacturer's instructions (ThermoFisher). Subsequently, Laemli buffer (4×) (62.5 mM Tris pH 6.8; 25% glycerol, 2% SDS, 0.01% bromophenol blue and 5% β-mercaptoethanol) was added to the cell lysate and was heated at 95° C. for 3 min, in a thermoblock. About 50 μg of proteins were loaded into each well of a 10% polyacrylamide gel under denaturing conditions (SDS-PAGE). Then the proteins were transferred to a polyvinylidene difluoride (PVDF) membrane by wet transfer for 2 h at 100 V in Tris-Glycine 20% methanol buffer. The membranes were blocked with 5% skimmed milk in Buffer Tris and 0.05% Tween 20 (T-TBS) for 1 h at room temperature under shaking. […]"}, "HeLa Cx46-GFP cells": {"tested_on": "HeLa Cx46-GFP cells", "assay": "Tumor sphere formation on non-adherent surface", "from_the_text": "(B) Tumor spheres growing is a technique used to determine the cancer stem cells capacity. Hela cells transfected with GFP for a monolayer of cells when they a seeded in a non-adherent surface, and moreover they died after 14 days in culture. However, Hela cells transfected with Cx46GFP do form tumor spheres which survive at last for 14 days. […] (D) graphical comparison between the size of tumor spheres at day 14 under control conditions (outer line) and treated with the peptide (inner line). Plot show the quantification of the tumor sphere size between time 0 and day 14, both under control condition (upper line) and with the peptide (lower line).\nMimetic peptides of the Cx46 domains that would interact with c-Src, Akt or PI3k were designed, synthesized and evaluated for their ability to inhibit the formation of tumor spheres in vitro in Hela cells overexpressing or not Cx46. Briefly, the experiments were done with the following protocols.\nCell line cultures: The HeLa cell line was grown in Dulbecco's Modified Eagle Medium (DMEM) supplemented with 10% fetal bovine serum (FBS) and 1% penicillin 10,000 U/mL, streptomycin sulfate […] (P/S) at 37° C., 5% CO2 and 95% humidity. Every 2 weeks the presence of mycoplasma was analyzed, by means of staining with DAPI. Infected cells were treated with BioMyc-1 (100×) for two weeks.\nCell Transfection: Cells were transfected using Lipofectamine 2000 (Invitrogen). For this HeLa cell cultures were grown to reach 60% confluence. Cells are washed with serum-free DMEM twice and finally exposed to OptiMem™ (Invitrogen) plus 1 μg cDNA. The cDNA for GFP-linked human Cx46 was purchased from Promega. The plasmid also has a resistance to G418, which is an antibiotic that serves for the selection of cells that stably express Cx46-GFP. Cx46 expression was monitored by Western blot and immunofluorescence analysis.\nHowever, Hela cells transfected with Cx46-GFP form large tumor spheres that remain alive for at least 14 days (FIG. 2B; Annex 1). […]"}},
  "data": [
    {"substance": "TAT-Cx46-Src: Mimetic peptide of the Cx46 404-410 C-terminal segment (MHQPPLP) fused with the cell-penetrating TAT peptide; blocks the Cx46/c-Src interaction (GRKKRRQRRRPQMHQPPLP)", "values": [
      {"measurement": "uptake of 7-AAD dye", "setting": "[1]; day 14, 10 mM 7-AAD in extracellular media, 100 mM peptide every 3 days, n=3", "value": "shown uptake of this Dye"},
      {"measurement": "death of cells in tumor spheres (cell viability studies)", "setting": "[1]; treatment with 100 μM, HeLa Cx46-GFP tumor spheres", "value": "promotes the death of cells in the center of tumor spheres"},
      {"measurement": "cell death of Hela cells Cx46GFP", "setting": "[1]; tumor spheres grown 14 days, 100 mM added every 3 days, n=3 (FIG. 4)", "value": "increase cell death"},
      {"measurement": "Akt phosphorylation levels in S473", "setting": "[2]; 100 μM, 24-h treatment, HeLa Cx46-GFP cells", "value": "strongly decreased"},
      {"measurement": "Akt phosphorylation in S473 (pAKT relative to total AKT)", "setting": "[2]; concentrations ranging between 0-100 mM, n=3 (FIG. 3)", "value": "decreased Akt phosphorylation"},
      {"measurement": "decrease of the size of tumor spheres", "setting": "HeLa Cx46-GFP cells; 100 μM, 10 days of treatment, HeLa Cx46-GFP cells", "value": "about 43%"},
      {"measurement": "tumor sphere size", "setting": "HeLa Cx46-GFP cells; 100 mM added to the extracellular media every 3 days, Hela Cx46GFP, up to day 14 (FIG. 2C)", "value": "reduced tumor sphere size"},
      {"measurement": "inhibition of the cancer stem cells (CSC) functional phenotype", "setting": "HeLa Cx46-GFP cells; Hela cells (FIGS. 2C and D)", "value": "strong inhibition"}
    ]}
  ]
}
